In publication PMC6753678, “Fueling Open Innovation for Malaria Transmission-Blocking Drugs: Hundreds of Molecules Targeting Early Parasite Mosquito Stages” (Frontiers in Microbiology, 2019):
Read-outs that look alike come from different tables or passages of the source.

How the values were obtained:
HepG2 cells = assay: HepG2 cytotoxicity assay; settings: for Pb ODA (this manuscript) HepG2 cytoxicity: HepG2 cytotoxicity listed with the Pb ODA data set (this manuscript); for IC50: read-out: HepG2 cytotoxicity assay IC50, dose response confirmation
Outline: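 Cells at 2,500 per well in MEM with 10% fetal bovine serum and 1% NEAA were exposed to test compounds for 48 h at 37°C, 5% CO2. Viability was read by fluorescence, with percent inhibition calculated against 50 μM doxorubicin (positive) and DMSO (negative) controls.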

[1] = test system: 3D7-strain P. falciparum asexual parasites; assay: P. falciparum asexual growth inhibition assay (Pf GIA); format: cell-based, Plasmodium falciparum; settings: dose response confirmation; read-out: Pf asexual growth inhibition assays IC50
Outline: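 Parasites at 0.25% parasitemia, 2% hematocrit in Albumax-supplemented RPMI were exposed to compounds in dose response for 72 h at 37°C under 5% CO2/5% O2. Viability was read as LDH activity (NBT/diaphorase, A650 after freeze-thaw). Percent inhibition was calculated against chloroquine and DMSO controls, mean of three biological replicates.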

[2] = test system: P. berghei ookinete development; settings: for % inhibition, Replicate A / % inhibition, Replicate B: primary screen at 1 μM
[3] = read-out: Pb Ookinete development assay IC50, dose response confirmation
[4] = HepG2 values of the three screens unified
[5] = read-out: Pb ODA IC50, this manuscript
[6] = unified HepG2 value across the three screens
[7] = read-out: Pb ODA (this manuscript) IC50, P. berghei ookinete development assay, this manuscript

## Cc1cccc2nc(-c3ccc(-c4ccc(CN5CCCC(O)C5)cc4)cc3)[nH]c12.O=C(O)C(F)(F)F (centres unmarked) [TCMDC-133826]
HepG2 cells
  Pb ODA (this manuscript) HepG2 cytoxicity: 12.88 µM
  IC50: 12900 nM
[1]
  IC50: 1480 nM
[2]
  Is compound selective in assay? Pb ODA active?: 0 (key: 1: YES; 0: NO)
  % inhibition, Replicate A: 58.08%
  % inhibition, Replicate B: 28.26%
[2]; [3]
  IC50: 9270 nM

## COc1ccc(Oc2ccc(-c3c(C)[nH]c(C)c(Cl)c3=O)cc2)cc1 [TCMDC-136134]
HepG2 cells; [4]
  Unified cytotox: 100.00 µM
HepG2 cells
  IC50: 100000 nM
[1]
  IC50: 7.4 nM
[2]; 1: YES, 0: NO
  Is compound selective in assay? Pb ODA active?: 1 (1: YES)
[2]
  % inhibition, Replicate A: 121.16%
  % inhibition, Replicate B: 100.57%
[2]; [5]
  IC50: 420 nM
[2]; [3]
  IC50: 422 nM

## Cc1cc(=O)c(-c2cccc(Oc3ccc(Cl)cc3)c2)c(C)[nH]1 [TCMDC-137415]
HepG2 cells
  HepG2 cytoxicity (Pb ODA, this manuscript): 35.48 µM
  IC50: 35500 nM
HepG2 cells; [4]
  Unified cytotox: 35.48 µM
[1]
  IC50: 396 nM
[2]; 1: YES, 0: NO
  Is compound selective in assay? Pb ODA active?: 1 (1: YES)
[2]
  % inhibition, Replicate A: 51.13%
  % inhibition, Replicate B: 85.04%
[2]; [5]
  IC50: 710 nM
[2]; [3]
  IC50: 706 nM

## CCCCN(C)CC#Cc1ccc2[nH]c(C)c(Cl)c(=O)c2c1 [TCMDC-136185]
HepG2 cells
  IC50: 3090 nM
HepG2 cells; [6]
  Unified cytotox: 3.09 µM
[1]
  IC50: 49 nM
[2]; 1: YES, 0: NO
  Is compound selective in assay? Pb ODA active?: 1 (1: YES)
[2]
  % inhibition, Replicate A: 106.94%
  % inhibition, Replicate B: 101.22%
[2]; [5]
  IC50: 210 nM
[2]; [3]
  IC50: 207 nM

## CN(C)CCN(C)C(=O)c1cc(-c2ccncc2)c(-c2ccc(Cl)c(O)c2)o1.Cl [TCMDC-141393]
HepG2 cells
  IC50: 53700 nM
HepG2 cells; [6]
  Unified cytotox: 53.70 µM
[1]
  IC50: 2490 nM
[2]; 1: YES, 0: NO
  Is compound selective in assay? Pb ODA active?: 1 (1: YES)
[2]
  % inhibition, Replicate A: 35.76%
  % inhibition, Replicate B: 53.63%
[2]; [5]
  IC50: 1750 nM
[2]; [3]
  IC50: 1750 nM

## CN(Cc1cccc(F)c1)C1CCN(c2cc(NC(=O)c3ccc(F)cc3)ccn2)CC1.O=C(O)C(F)(F)F [TCMDC-135018]
HepG2 cells
  IC50: 140 nM
HepG2 cells; [6]
  Unified cytotox: 0.14 µM
[1]
  IC50: 31 nM
[2]; 1: YES, 0: NO
  Is compound selective in assay? Pb ODA active?: 0 (0: NO)
[2]
  % inhibition, Replicate A: 54.82%
  % inhibition, Replicate B: 42.75%
[2]; [5]
  IC50: 6060 nM
[2]; [3]
  IC50: 6060 nM

## C=CCc1cc(OC)ccc1OCCCOc1c(C)nc(N)nc1N.Cl [TCMDC-131358]
HepG2 cells
  IC50: 260 nM
HepG2 cells; [6]
  Unified cytotox: 0.26 µM
[1]
  IC50: < 0.2 nM
[2]; 1: YES, 0: NO
  Is compound selective in assay? Pb ODA active?: 0 (0: NO)
[2]
  % inhibition, Replicate A: 71.96%
  % inhibition, Replicate B: 22.95%
[2]; [5]
  IC50: 2360 nM
[2]; [3]
  IC50: 2360 nM

## N#Cc1ccc(CN2CCC(Oc3ccc(NC(=O)c4cccs4)cc3Cl)CC2)cc1.O=C(O)C(F)(F)F [TCMDC-133955]
HepG2 cells
  Pb ODA (this manuscript) HepG2 cytoxicity: 36.31 µM
  IC50: 36300 nM
[1]
  IC50: 600 nM
[2]
  Is compound selective in assay? Pb ODA active?: 0 (key: 1: YES; 0: NO)
  % inhibition, Replicate A: 56.20%
  % inhibition, Replicate B: 46.08%
[2]; [7]
  IC50: 4360 nM
[2]; [3]
  IC50: 4360 nM

## CN(C)S(=O)(=O)n1ccc2c3c(N)nc(N)nc3ccc21 [TCMDC-137973]
HepG2 cells
  Pb ODA (this manuscript) HepG2 cytoxicity: 0.0017 µM
  IC50: 1.7 nM
[1]
  IC50: 6 nM
[2]
  Is compound selective in assay? Pb ODA active?: 0 (key: 1: YES; 0: NO)
  % inhibition, Replicate A: 72.90%
  % inhibition, Replicate B: 52.14%
[2]; [7]
  IC50: 1270 nM
[2]; [3]
  IC50: 1270 nM

## C=CCn1ccc2c3c(N)nc(N)nc3ccc21 [TCMDC-137995]
HepG2 cells
  HepG2 cytoxicity (Pb ODA, this manuscript): 1.00 µM
  IC50: 1000 nM
HepG2 cells; [4]
  Unified cytotox: 1.00 µM
[1]
  IC50: 24 nM
[2]; 1: YES, 0: NO
  Is compound selective in assay? Pb ODA active?: 0 (0: NO)
[2]
  % inhibition, Replicate A: 75.02%
  % inhibition, Replicate B: 69.00%
[2]; [5]
  IC50: 2480 nM
[2]; [3]
  IC50: 2480 nM

## O=C(Nc1ccccc1)Nc1ccc(-n2ccc(C(F)(F)F)n2)cc1 [TCMDC-123480]
HepG2 cells
  IC50: 100000 nM
HepG2 cells; [6]
  Unified cytotox: 100.00 µM
[1]
  IC50: 419 nM
[2]; 1: YES, 0: NO
  Is compound selective in assay? Pb ODA active?: 1 (1: YES)
[2]
  % inhibition, Replicate A: 42.19%
  % inhibition, Replicate B: 52.26%
[2]; [5]
  IC50: 1900 nM
[2]; [3]
  IC50: 1900 nM

## Cc1sc2ncnc(Sc3nc4ccccc4[nH]3)c2c1C [TCMDC-123835]
HepG2 cells
  IC50: 100000 nM
HepG2 cells; [6]
  Unified cytotox: 100.00 µM
[1]
  IC50: 748 nM
[2]; 1: YES, 0: NO
  Is compound selective in assay? Pb ODA active?: 1 (1: YES)
[2]
  % inhibition, Replicate A: 69.92%
  % inhibition, Replicate B: 40.18%
[2]; [5]
  IC50: 920 nM
[2]; [3]
  IC50: 919 nM

## Cc1[nH]c(C)c(-c2ccc(C(=O)c3ccc(Cl)cc3)cc2)c(=O)c1Cl [TCMDC-137413]
HepG2 cells
  Pb ODA (this manuscript) HepG2 cytoxicity: 100.00 µM
  IC50: 100000 nM
[1]
  IC50: 117 nM
[2]
  Is compound selective in assay? Pb ODA active?: 1 (key: 1: YES; 0: NO)
  % inhibition, Replicate A: 122.85%
  % inhibition, Replicate B: 129.69%
[2]; [7]
  IC50: 170 nM
[2]; [3]
  IC50: 171 nM

## O=C(c1cc(-c2ccco2)[nH]n1)N1CCN(S(=O)(=O)c2ccc(Cl)cc2)CC1 [TCMDC-124698]
HepG2 cells
  Pb ODA (this manuscript) HepG2 cytoxicity: 100.00 µM
  IC50: 100000 nM
[1]
  IC50: 563 nM
[2]
  Is compound selective in assay? Pb ODA active?: 1 (key: 1: YES; 0: NO)
  % inhibition, Replicate A: 67.42%
  % inhibition, Replicate B: 51.92%
[2]; [7]
  IC50: 1120 nM
[2]; [3]
  IC50: 1120 nM

## Br.CC[C@H]1CN2CCc3cc(OC)c(OC)cc3[C@@H]2C[C@@H]1C[C@H]1NCCc2c1cc(OC)c(O)c2I [TCMDC-131829]
HepG2 cells
  Pb ODA (this manuscript) HepG2 cytoxicity: 5.43 µM
  IC50: 5430 nM
[1]
  IC50: 98 nM
[2]
  Is compound selective in assay? Pb ODA active?: 1 (key: 1: YES; 0: NO)
  % inhibition, Replicate A: 45.92%
  % inhibition, Replicate B: 90.22%
[2]; [7]
  IC50: 410 nM
[2]; [3]
  IC50: 412 nM

## COCCN(C)c1ccc(C(=O)Nc2ccccc2)cc1NS(=O)(=O)Cc1ccccc1.O=C(O)C(F)(F)F [TCMDC-134575]
HepG2 cells
  IC50: 100000 nM
HepG2 cells; [6]
  Unified cytotox: 100.00 µM
[1]
  IC50: 606 nM
[2]; 1: YES, 0: NO
  Is compound selective in assay? Pb ODA active?: 1 (1: YES)
[2]
  % inhibition, Replicate A: 51.04%
  % inhibition, Replicate B: 48.31%
[2]; [3]
  IC50: 1400 nM

## CCN(CC)CCCNc1nccc(N(C)c2ccc(NC(=O)Nc3cc(C(F)(F)F)ccc3F)cc2)n1.O=C(O)C(F)(F)F [TCMDC-141634]
HepG2 cells
  IC50: 2750 nM
HepG2 cells; [6]
  Unified cytotox: 2.75 µM
[1]
  IC50: 811 nM
[2]; 1: YES, 0: NO
  Is compound selective in assay? Pb ODA active?: 0 (0: NO)
[2]
  % inhibition, Replicate A: 55.58%
  % inhibition, Replicate B: 13.78%
[2]; [5]
  IC50: 9020 nM
[2]; [3]
  IC50: 9020 nM

## Cc1[nH]c(C)c(-c2ccc(-c3ccc(OCC(F)(F)F)cc3)nc2)c(=O)c1Cl [TCMDC-132306]
HepG2 cells; [4]
  Unified cytotox: 100.00 µM
HepG2 cells
  IC50: 100000 nM
[1]
  IC50: 655 nM
[2]; 1: YES, 0: NO
  Is compound selective in assay? Pb ODA active?: 1 (1: YES)
[2]
  % inhibition, Replicate A: 58.32%
  % inhibition, Replicate B: 97.73%
[2]; [5]
  IC50: 1240 nM
[2]; [3]
  IC50: 1240 nM

## COc1cc(NC2=C(c3ccccc3)C(=O)c3ccccc32)ccn1 [TCMDC-135283]
HepG2 cells
  Pb ODA (this manuscript) HepG2 cytoxicity: 100.00 µM
  IC50: 100000 nM
[1]
  IC50: 286 nM
[2]
  Is compound selective in assay? Pb ODA active?: 1 (key: 1: YES; 0: NO)
  % inhibition, Replicate A: 80.47%
  % inhibition, Replicate B: 74.75%
[2]; [7]
  IC50: 740 nM
[2]; [3]
  IC50: 743 nM
